The source of these data is PMC4227698, “Poly(Ethylene Glycol) as a Scaffold for High-Affinity Open-Channel Blockers of the Mouse Nicotinic Acetylcholine Receptor” (PLoS ONE, 2014).

In test [1] the target is T1, adult mouse muscle AChR (α, β, δ, ε) (Mus musculus, UniProt P02716+P04756+P09690+P20782, V433A).
T1 construct: expressed in transfected cells; host or cells: HEK-293 cells (ATCC CRL-1573), transient calcium phosphate transfection, α:β:δ:ε = 2:1:1:1
Description: Single-channel patch-clamp analysis of open-channel blockade of AChRs expressed in HEK-293 cells. The format is cell-based. To be noted: for effect on apparent mean open time (τapp): 100 µM ACh with 5, 10 or 20 µM PEG-QA; for unblocking rate constant k–B / blocking rate constant k+B: cell-attached; for unblocking rate constant k–B: average of unblocking rates at all tested concentrations; for blocking rate constant k+B: slope of linear fit of blocking rates. The method, then: The cDNA clones of adult mouse muscle AChR subunits (α, β, δ, ε) in the vector pRBG4 were generously provided by Professor Anthony Auerbach (University at Buffalo, NY). […] Human embryonic kidney cells (HEK-293 cells, ATCC CRL-1573) were transiently transfected by calcium phosphate precipitation. In brief, HEK-293 cells were maintained in Dulbecco's […] (Invitrogen) supplemented with 10% Fetal Bovine Serum (Invitrogen) at 37°C and 5% CO2. Cells were plated 24 h before transfection to reach a confluence of 40–60%. A total of 3.5 µg DNA per 35-mm culture dish (α:β:δ:ε = 2∶1∶1∶1) was used. […] The medium was changed 24 h after the addition of DNA, and patch-clamp recordings were carried out 20–36 h thereafter.
Single-channel currents from AChRs were recorded using patch-clamp techniques in the cell-attached configuration. For dose-dependence measurements, a holding potential of +70 mV was applied. Kinetic analysis of single-channel currents was carried out using the QuB suite, [12]. The currents were idealized using the segmented k-means (SKM) hidden Markov algorithm at full bandwidth (10 kHz). Kinetic modeling of the idealized intervals was performed using the maximum interval likelihood (MIL) method, [12]. Additional details of recording and data analysis are provided in File S1.
MIL analysis on 2–4 cells was performed to determine the apparent mean open time (τapp), blocking rate, and unblocking rate for each measuring condition (reported as mean ± SEM). Uncertainties in the blocking rate constant (k+B values in Figure 2F) are reported as the standard errors in the least squares fits.
To test this hypothesis, we characterized the blockade kinetics of a series of PEG-QA conjugates (PQ1–PQ5; Figure 1) using patch-clamp electrophysiology. These conjugates were prepared from a short PEG, octa (ethylene glycol), through a three-step conversion (File S1). The chosen QA groups are small relative to the backbone length, and the hydrodynamic radii of these compounds are therefore expected to be similar. The kinetics and microscopic equilibrium affinity of channel blockade were determined by analyzing the acetylcholine (ACh)-elicited currents at the single-channel level. Channel activities were measured at 100 µM ACh in the absence or presence of 5, 10, or 20 µM of PEG-QA. […] The brief gaps within the clusters represent channel closing events.
Typical open-channel blockers follow a sequential blockade mechanism: the channel opens in response to ACh binding, and the blocker reversibly binds and dissociates from the transmembrane pore before the channel closes (Figure 1 and File S1). […] A new population of non-conducting blockade events, in addition to the brief closing and the long desensitized dwells, is also observed. These blockade events manifest themselves as a new component in the closed-time histogram. The relative area of the blockade component increases with increasing blocker concentration (reflecting the concentration-dependent rate of pore blockade), while the lifetime of this component (τB) is independent of blocker concentration (reflecting the unimolecular nature of blocker dissociation). These kinetic features allow the blocking and unblocking rate constants (k+B and k–B, respectively) to be determined by fitting of the dwell times under each set of conditions (File S1). […]
were amplified (Axopatch 200B, Axon Instruments, Foster City, CA), low-pass filtered at 10 kHz, and digitized at 20 kHz (NI 6040 E Data Acquisition Board, National Instruments, Austin, TX). Data were recorded directly to a desktop PC hard drive using the QuB software (www.qub.buffalo.edu).
1.3. Analysis of single-channel data (see also: Figure S1)
Kinetic analysis of single-channel currents was carried out using the QuB suite. The currents were idealized using the segmented k-means (SKM) hidden Markov algorithm at full bandwidth (10 kHz). Kinetic modeling of the idealized intervals […]
For orientation: In patch-clamp work, channel activity is measured electrically.

Test [2] deals with muscle-type AChR. The following applies: cited from earlier work; for blocking rate constant k+B / unblocking rate constant k–B: ref Table S1 refs 1-12.
The target in test [3] is T1, adult mouse muscle AChR (α, β, δ, ε). Briefly: Agonist potency of PEG-QA alone, single-channel recording. Type of test: cell-based. To be noted: 10 µM in the pipette solution without other agonists, +70 mV. The source says: Various QA compounds, including the prototype PEG-QA (PQ0), have been previously reported as agonists for the muscle-type AChR [8], [19], [26]–[28]. […] The agonist potencies of PEG-QAs correlate roughly inversely with the size of their QA groups (except PQ4; Figure S4). […] The low agonist potencies of PQ3 and PQ5 may be attributable to their bulky QA groups, which may cause reduced affinities for the agonist-binding pocket and/or interfere with receptor conformational changes required for channel gating. Open-channel blockers with low agonist potencies may be favorable in some applications, since their pharmacological effects are simpler and more predictable.
Supplementary file pone.0112088.s004.tif: Figure S4 The agonist potencies of PQ1–5. (A) Representative traces of single-channel recordings in the presence of individual PEG-QA (10 µM in the pipette solution without other agonists). Pipette potential was held at +70 mV, and the currents are shown as upward deflections. (B) The effect of QA structure on the open probability of the AChR (defined as [drawing 1] , where N max is the maximal number of simultaneously open channels and Po,i is the fraction of time in which i channels open simultaneously). Data are plotted in log-scale in order to present the low NPo values of PQ3 and PQ5. (C) The effect of QA structure on the mean open time of the AChR. […]

Where [4] appears, read: 100 µM ACh, +70 mV, predominant blockade mode.
The mark [5] stands for this setting: predominant blockade mode, 100 µM ACh, +70 mV, read-out: Kd (= k–B/k+B) for the open AChR pore.
[6] abbreviates: previously reported open-channel blockers.
The mark [7] stands for this setting: previously reported open-channel blockers, ref Table S1 refs 1-14, read-out: Kd (= k–B/k+B).
Where [8] appears, read: 20 µM blocker, held at +50, +70, +100, +130 mV.

Molecules are shown by their SMILES. Like-named read-outs stand apart in the source and are kept apart here.

T1 sequence (P04756 21-457 V433A): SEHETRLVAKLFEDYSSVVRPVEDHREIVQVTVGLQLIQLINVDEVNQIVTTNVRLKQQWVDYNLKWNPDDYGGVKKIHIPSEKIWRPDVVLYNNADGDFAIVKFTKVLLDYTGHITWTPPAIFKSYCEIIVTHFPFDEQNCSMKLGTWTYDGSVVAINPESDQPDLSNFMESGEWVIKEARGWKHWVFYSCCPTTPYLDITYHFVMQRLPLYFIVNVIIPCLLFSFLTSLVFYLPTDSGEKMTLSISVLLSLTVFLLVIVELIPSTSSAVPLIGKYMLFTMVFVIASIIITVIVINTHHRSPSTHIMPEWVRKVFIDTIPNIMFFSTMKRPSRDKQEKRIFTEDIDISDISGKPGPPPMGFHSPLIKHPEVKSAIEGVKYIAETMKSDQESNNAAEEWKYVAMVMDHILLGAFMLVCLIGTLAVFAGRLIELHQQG
T1 sequence (P09690 24-501): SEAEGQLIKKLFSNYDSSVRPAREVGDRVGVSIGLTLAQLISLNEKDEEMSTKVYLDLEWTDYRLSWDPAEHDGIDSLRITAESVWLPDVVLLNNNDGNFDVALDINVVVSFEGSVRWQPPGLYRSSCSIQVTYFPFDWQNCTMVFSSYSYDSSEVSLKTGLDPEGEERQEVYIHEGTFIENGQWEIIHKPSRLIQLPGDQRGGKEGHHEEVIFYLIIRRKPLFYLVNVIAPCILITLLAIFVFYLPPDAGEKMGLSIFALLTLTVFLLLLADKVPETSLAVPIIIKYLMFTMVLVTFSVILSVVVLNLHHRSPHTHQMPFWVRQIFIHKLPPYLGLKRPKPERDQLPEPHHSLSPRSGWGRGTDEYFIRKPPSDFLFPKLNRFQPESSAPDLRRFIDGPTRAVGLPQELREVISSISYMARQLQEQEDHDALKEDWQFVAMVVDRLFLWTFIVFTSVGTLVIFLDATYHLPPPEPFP
T1 sequence (P02716 25-520): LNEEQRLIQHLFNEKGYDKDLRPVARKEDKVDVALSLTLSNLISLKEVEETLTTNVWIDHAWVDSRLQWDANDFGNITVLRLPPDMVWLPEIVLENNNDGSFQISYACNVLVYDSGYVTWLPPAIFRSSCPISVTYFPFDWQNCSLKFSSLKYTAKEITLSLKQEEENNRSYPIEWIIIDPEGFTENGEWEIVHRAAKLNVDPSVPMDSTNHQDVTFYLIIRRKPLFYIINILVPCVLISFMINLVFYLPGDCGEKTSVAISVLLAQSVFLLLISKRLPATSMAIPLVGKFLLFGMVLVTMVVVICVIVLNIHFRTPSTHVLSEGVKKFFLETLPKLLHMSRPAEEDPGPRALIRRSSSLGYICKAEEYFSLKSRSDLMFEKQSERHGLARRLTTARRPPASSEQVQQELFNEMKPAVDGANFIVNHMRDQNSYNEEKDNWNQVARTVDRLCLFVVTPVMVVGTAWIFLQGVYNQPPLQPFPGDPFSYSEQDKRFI
T1 sequence (P20782 21-493): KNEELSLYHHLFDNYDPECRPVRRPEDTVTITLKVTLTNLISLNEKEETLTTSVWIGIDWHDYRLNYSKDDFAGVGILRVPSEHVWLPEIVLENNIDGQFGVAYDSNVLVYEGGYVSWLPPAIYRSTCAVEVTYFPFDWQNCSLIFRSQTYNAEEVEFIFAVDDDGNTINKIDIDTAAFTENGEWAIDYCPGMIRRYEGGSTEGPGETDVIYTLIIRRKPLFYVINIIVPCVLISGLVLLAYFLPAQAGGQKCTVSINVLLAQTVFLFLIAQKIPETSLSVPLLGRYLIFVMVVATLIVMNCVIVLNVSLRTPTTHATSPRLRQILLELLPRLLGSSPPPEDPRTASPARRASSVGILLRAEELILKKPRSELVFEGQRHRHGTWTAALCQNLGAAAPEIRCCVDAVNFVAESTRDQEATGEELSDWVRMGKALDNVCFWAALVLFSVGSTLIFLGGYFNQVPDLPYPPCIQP

Turning to `CC[N+](CC)(CC)CCOCCOCCOCCOCCOCCOCCOCC[N+](CC)(CC)CC` [PQ4], the “effect on apparent mean open time (τapp)” value in test [1] (+70 mV) is “dose-dependent decrease”. For the same molecule, in test [1] (setting [4]), the “unblocking rate constant k–B” value is 4 ± 3 s⁻¹ and the “blocking rate constant k+B” value amounted to 2.2e+07 M⁻¹ s⁻¹. Further, the Kd in test [1] (setting [5]) stood at 0.19 ± 0.15 µM.
As for `C[N+](C)(C)CCOCCOCCOCCOCCOCCOCCOCC[N+](C)(C)C` [PQ0], in test [2] (prototype PEG-trimethylammonium blockers, read-out: Kd for the AChR pore), the Kd was 9 ± 2 µM.
In test [1], `C[N+]1(CCOCCOCCOCCOCCOCCOCCOCC[N+]2(C)CCCCC2)CCCCC1` [PQ2] yielded a Kd of 0.08 ± 0.09 µM. Further, the “effect on apparent mean open time (τapp)” value in test [1] (+70 mV) is “dose-dependent decrease”. For the same molecule, in test [1] (setting [4]), the “unblocking rate constant k–B” value is 2 ± 2 s⁻¹ and the “blocking rate constant k+B” value was found to be 2.9e+07 ± 7e+06 M⁻¹ s⁻¹.
As to `C[C@]12N[C@H](Cc3ccccc31)c1ccccc12` [MK-801], in test [2] (setting [6]), the “blocking rate constant k+B” value was 2e+07 M⁻¹ s⁻¹ and the “unblocking rate constant k–B” value was 48 s⁻¹. Further, the Kd in test [2] (setting [7]) is 2.4 µM.
On to `C[N+]1(CCOCCOCCOCCOCCOCCOCCOCC[N+]2(C)CCCC2)CCCC1` [PQ1], for which the “effect on apparent mean open time (τapp)” value in test [1] (+70 mV) is recorded as “dose-dependent decrease”. In test [1] (setting [4]), the “unblocking rate constant k–B” value came to 64 ± 14 s⁻¹ and the “blocking rate constant k+B” value stood at 2e+07 ± 4e+06 M⁻¹ s⁻¹. The predominant blockade mode entry in test [1] (faster- vs slower-dissociation mode) is “faster-dissociation mode”. In addition, in test [1] (setting [5]), the Kd stood at 3 ± 1 µM.
As for `CCC[N+](C)(CCC)CCOCCOCCOCCOCCOCCOCCOCC[N+](C)(CCC)CCC` [PQ5], in test [1] (setting [8]), the “voltage dependence of k+B” value is “increases with membrane hyperpolarization” and the “voltage dependence of τapp” value was “decreases with hyperpolarizing”. For the same molecule, the “effect on apparent mean open time (τapp)” value in test [1] (+70 mV) is “dose-dependent decrease”. Besides, in test [1] (setting [4]), the “unblocking rate constant k–B” value is 2 ± 1 s⁻¹ and the “blocking rate constant k+B” value was 1.5e+07 ± 1e+06 M⁻¹ s⁻¹. Also, the Kd in test [1] (setting [5]) came to 0.12 ± 0.09 µM. The “agonist potency (channel open probability and opening duration with compound alone)” value in test [3] is recorded as “poor agonists”.
Regarding `CC[N+]1(CCOCCOCCOCCOCCOCCOCCOCC[N+]2(CC)CCCCC2)CCCCC1` [PQ3], the “effect on apparent mean open time (τapp)” value in test [1] (+70 mV) is recorded as “dose-dependent decrease”. In test [1] (setting [4]), the “unblocking rate constant k–B” value is 4 ± 2 s⁻¹ and the “blocking rate constant k+B” value was 2.2e+07 ± 6e+06 M⁻¹ s⁻¹. For the same molecule, in test [1] (setting [5]), the Kd is 0.17 ± 0.12 µM. For the same molecule, in test [3], the “agonist potency (channel open probability and opening duration with compound alone)” value is given as “poor agonists”.
On to `C[N+](C)(C)CCO` [choline], for which the Kd in test [2] (setting [7]) is 12500 µM.
Regarding `CNC1(c2ccccc2Cl)CCCCC1=O` (stereo not shown) [ketamine], in test [2] (setting [6]), the “blocking rate constant k+B” value is 3e+06 M⁻¹ s⁻¹ and the “unblocking rate constant k–B” value was 100 s⁻¹. The Kd in test [2] (setting [7]) was 33 µM.
Take `COc1cc2c3cc1Oc1cc(ccc1O)C[C@@H]1c4c(cc(OC)c(O)c4Oc4ccc(cc4)C[C@@H]3N(C)CC2)CC[N+]1(C)C` [(+)-tubocurarine]: in test [2] (setting [6]), the “blocking rate constant k+B” value was 3e+06 M⁻¹ s⁻¹ and the “unblocking rate constant k–B” value was 0.8 s⁻¹. Also, the Kd in test [2] (setting [7]) is 0.27 µM.
Take `CC[N+](CC)(CC)CC(=O)Nc1c(C)cccc1C` [QX-314]: in test [2] (setting [6]), the “blocking rate constant k+B” value is 1.9e+07 M⁻¹ s⁻¹ and the “unblocking rate constant k–B” value is ~ 30 s^−1. The Kd in test [2] (setting [7]) was ~1 µM.
With `CC(=O)OCC[N+](C)(C)C` [acetylcholine], in test [2] (setting [6]), the “blocking rate constant k+B” value was 3.7e+07 M⁻¹ s⁻¹ and the “unblocking rate constant k–B” value was 56000 s⁻¹. For the same molecule, the Kd in test [2] (setting [7]) was 1200 µM.
With `Cc1cccc(C)c1NC(=O)C[N+](C)(C)C` [QX-222], in test [2] (setting [6]), the “blocking rate constant k+B” value is 2.1e+07 M⁻¹ s⁻¹ and the “unblocking rate constant k–B” value was ~ 600 s^−1. Further, the Kd in test [2] (setting [7]) is ~30 µM.
For `Br.C[N+](C)(C)CCCCCNCC12CC3CC(CC(C3)C1)C2.[Br-]` [IEM-1460], in test [2] (setting [6]), the “blocking rate constant k+B” value was 7.2e+07 M⁻¹ s⁻¹ and the “unblocking rate constant k–B” value was 858 s⁻¹. The Kd in test [2] (setting [7]) was 12 µM.
`CNC(=O)Oc1ccc2c(c1)[C@]1(C)CCN(C)[C@@H]1N2C` [physostigmine]: in test [2] (setting [6]), the “blocking rate constant k+B” value was 2e+07 M⁻¹ s⁻¹ and the “unblocking rate constant k–B” value was 450 s⁻¹. In addition, in test [2] (setting [7]), the Kd is 23 µM.
With `Nc1nnc(-c2cccc(Cl)c2Cl)c(N)n1` [lamotrigine], in test [2] (setting [6]), the “blocking rate constant k+B” value is 6.2e+06 M⁻¹ s⁻¹ and the “unblocking rate constant k–B” value is 575 s⁻¹. In addition, in test [2] (setting [7]), the Kd was 93 µM.
Turning to `CC[N+](CC)(CC)CC` [tetraethylammonium], the Kd in test [2] (read-out: Kd (= k–B/k+B)) is 2700 µM.
For `CC(C)(C)NCC(O)c1ccc(O)c(CO)c1` (stereo not shown) [albuterol], in test [2] (setting [6]), the “blocking rate constant k+B” value was 4.3e+07 M⁻¹ s⁻¹ and the “unblocking rate constant k–B” value was 1042 s⁻¹. For the same molecule, the Kd in test [2] (setting [7]) is 24 µM.
Take `CN1CCCN=C1/C=C/c1cccs1` [pyrantel]: in test [2] (setting [6]), the “blocking rate constant k+B” value is 8e+07 M⁻¹ s⁻¹ and the “unblocking rate constant k–B” value is 667 s⁻¹. For the same molecule, in test [2] (setting [7]), the Kd is 8 µM.
`CCN(CC)CCOC(=O)c1ccc(N)cc1` [procaine]: in test [2] (setting [6]), the “blocking rate constant k+B” value was 2e+06 M⁻¹ s⁻¹ and the “unblocking rate constant k–B” value is 200 s⁻¹. The Kd in test [2] (setting [7]) was 100 µM.
